# Experimental data reported in ChEMBL document CHEMBL4359843, “Linear and Rationally Designed Stapled Peptides Abrogate TLR4 Pathway and Relieve Inflammatory Symptoms in Rheumatoid Arthritis Rat Model” (J Med Chem, 2019).
# Activity calls are given as the source filed them. No cut-off for these calls is given here. Where a SMILES comes first, the peptide text is derived from it. Bridges are numbered along the chain shown (N, C = ends).
# Legend:
# Rattus norvegicus [1] = assay: Antiarthritic activity in Lewis rat model of complete Freund's adjuvant-induced arthritis assessed as regain of normal feet physiology at 1 nmol/g administered intra-articularly into knee joint after 5 to 6 weeks by visual analysis; type: functional, organism-based
# Rattus norvegicus [2] = assay: Antiarthritic activity in Lewis rat model of complete Freund's adjuvant-induced arthritis assessed as reduction in mean articular index score at 1 nmol/g administered intra-articularly into knee joint for 6 weeks and measured every week during compound dosing; type: functional, organism-based
# [3] = biological target: T1, Toll-like receptor 4 (Mus musculus) (UniProt Q9QUK6); assay: Antagonist activity at TLR4 in mouse RAW264.7 cells assessed as reduction in LPS-induced extracellular NO secretion at 5 to 50 uM by spectrophotometric method; type: cell-based
# T1 sequence (whole entry): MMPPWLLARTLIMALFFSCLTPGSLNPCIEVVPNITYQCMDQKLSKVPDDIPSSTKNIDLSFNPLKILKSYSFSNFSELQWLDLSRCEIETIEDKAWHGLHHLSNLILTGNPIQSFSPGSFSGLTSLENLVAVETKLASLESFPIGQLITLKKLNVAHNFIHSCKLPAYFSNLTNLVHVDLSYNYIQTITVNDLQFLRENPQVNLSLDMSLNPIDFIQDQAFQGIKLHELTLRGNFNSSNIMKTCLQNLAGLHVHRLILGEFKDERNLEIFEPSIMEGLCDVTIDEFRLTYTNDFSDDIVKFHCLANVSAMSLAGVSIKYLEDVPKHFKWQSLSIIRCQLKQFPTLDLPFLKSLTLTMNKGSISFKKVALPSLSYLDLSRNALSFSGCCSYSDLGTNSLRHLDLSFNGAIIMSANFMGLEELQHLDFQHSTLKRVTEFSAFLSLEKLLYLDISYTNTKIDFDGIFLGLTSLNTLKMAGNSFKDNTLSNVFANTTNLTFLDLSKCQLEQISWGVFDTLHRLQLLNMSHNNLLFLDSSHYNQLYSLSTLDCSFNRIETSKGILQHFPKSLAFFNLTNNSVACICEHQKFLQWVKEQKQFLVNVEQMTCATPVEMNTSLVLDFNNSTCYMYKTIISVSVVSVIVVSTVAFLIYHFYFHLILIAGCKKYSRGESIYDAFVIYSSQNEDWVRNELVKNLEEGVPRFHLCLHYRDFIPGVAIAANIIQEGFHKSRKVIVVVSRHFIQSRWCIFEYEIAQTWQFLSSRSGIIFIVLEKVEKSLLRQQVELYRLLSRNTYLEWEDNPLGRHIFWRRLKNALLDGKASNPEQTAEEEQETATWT
# Toll-like receptor 4 [4] = biological target: T2, Toll-like receptor 4 (Homo sapiens, UniProt O00206); assay: Antagonist activity at TLR4 in human THP1 cells assessed as reduction in LPS-induced p38 phosphorylation at 50 uM after 15 to 30 mins by Western blot analysis; type: cell-based
# T2 sequence (O00206 whole entry): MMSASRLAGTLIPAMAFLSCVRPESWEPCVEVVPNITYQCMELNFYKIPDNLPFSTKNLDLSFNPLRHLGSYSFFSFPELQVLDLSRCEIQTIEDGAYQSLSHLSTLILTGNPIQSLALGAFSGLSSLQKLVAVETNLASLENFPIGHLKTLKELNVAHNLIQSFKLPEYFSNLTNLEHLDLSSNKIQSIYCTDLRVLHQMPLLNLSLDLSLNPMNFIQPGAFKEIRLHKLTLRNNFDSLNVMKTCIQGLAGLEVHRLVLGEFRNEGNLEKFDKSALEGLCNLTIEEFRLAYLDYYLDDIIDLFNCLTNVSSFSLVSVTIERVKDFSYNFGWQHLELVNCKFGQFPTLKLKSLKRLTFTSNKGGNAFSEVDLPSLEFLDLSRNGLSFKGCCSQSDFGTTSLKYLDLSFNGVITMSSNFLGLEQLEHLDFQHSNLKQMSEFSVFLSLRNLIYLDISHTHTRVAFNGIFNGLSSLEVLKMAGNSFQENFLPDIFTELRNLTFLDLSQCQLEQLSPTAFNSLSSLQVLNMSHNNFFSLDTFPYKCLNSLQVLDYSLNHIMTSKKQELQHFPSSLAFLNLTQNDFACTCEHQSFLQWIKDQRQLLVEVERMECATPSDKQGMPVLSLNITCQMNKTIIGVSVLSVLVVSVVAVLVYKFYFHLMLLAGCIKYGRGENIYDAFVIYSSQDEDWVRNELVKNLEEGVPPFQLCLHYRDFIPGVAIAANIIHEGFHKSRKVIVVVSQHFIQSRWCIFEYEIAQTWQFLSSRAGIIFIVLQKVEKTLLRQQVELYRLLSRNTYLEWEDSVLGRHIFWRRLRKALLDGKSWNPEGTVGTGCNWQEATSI
# Rattus norvegicus [5] = assay: Antiarthritic activity in Lewis rat model of complete Freund's adjuvant-induced arthritis assessed as reduction in TNFalpha expression in synovial tissues at 1 nmol/g administered intra-articularly into knee joint measured at 1 week by TNFalpha staining based immunohistochemical analysis; type: functional, organism-based
# [6] = biological target: T3, Toll-like receptor 9 (Homo sapiens) (UniProt Q9NR96); assay: Antagonist activity at TLR9 in human THP1 cells assessed as reduction in CpG ODN-induced IL6 secretion at 50 uM after 24 hrs by ELISA; type: cell-based
# T3 sequence (whole entry): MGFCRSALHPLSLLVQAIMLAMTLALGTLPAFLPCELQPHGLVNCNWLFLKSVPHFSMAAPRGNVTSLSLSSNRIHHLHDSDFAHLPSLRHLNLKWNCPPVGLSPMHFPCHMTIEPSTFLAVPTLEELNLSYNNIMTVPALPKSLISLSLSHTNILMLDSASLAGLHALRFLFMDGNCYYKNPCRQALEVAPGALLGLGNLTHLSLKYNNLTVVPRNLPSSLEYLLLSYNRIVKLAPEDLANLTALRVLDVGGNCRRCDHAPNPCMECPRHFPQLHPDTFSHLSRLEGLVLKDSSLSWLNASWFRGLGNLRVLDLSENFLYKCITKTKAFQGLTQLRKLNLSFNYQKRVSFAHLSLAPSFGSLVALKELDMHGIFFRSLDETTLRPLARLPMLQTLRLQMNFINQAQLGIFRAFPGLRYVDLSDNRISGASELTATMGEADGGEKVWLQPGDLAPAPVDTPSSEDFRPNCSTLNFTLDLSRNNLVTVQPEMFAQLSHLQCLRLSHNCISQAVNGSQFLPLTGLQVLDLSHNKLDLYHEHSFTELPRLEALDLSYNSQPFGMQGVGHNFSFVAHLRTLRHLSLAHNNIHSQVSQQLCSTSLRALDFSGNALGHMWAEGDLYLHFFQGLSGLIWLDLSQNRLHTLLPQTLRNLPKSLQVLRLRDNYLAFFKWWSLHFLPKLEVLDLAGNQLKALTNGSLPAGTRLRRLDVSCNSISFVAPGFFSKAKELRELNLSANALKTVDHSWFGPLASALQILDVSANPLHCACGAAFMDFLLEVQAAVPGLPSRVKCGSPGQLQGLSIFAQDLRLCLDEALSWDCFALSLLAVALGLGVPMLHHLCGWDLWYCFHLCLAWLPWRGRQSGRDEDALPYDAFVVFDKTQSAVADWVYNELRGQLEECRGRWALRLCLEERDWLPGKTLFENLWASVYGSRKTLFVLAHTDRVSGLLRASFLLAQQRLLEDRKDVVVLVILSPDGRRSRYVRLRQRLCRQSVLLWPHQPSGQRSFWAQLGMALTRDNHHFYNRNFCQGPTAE
# Rattus norvegicus [7] = assay: Antiarthritic activity in Lewis rat model of complete Freund's adjuvant-induced arthritis assessed as increase in cartilage thickness at 1 nmol/g administered intra-articularly into knee joint after 1 week by H and E staining based histopathological analysis; type: functional, organism-based
# Toll-like receptor 4 [8] = biological target: T2, Toll-like receptor 4; assay: Antagonist activity at TLR4 in human THP1 cells assessed as reduction in LPS-induced IkappaBalpha degradation at 50 uM after 15 to 30 mins by Western blot analysis; type: cell-based
# Mus musculus = assay: Antiinflammatory activity in C57BL/6J mouse assessed as reduction in LPS-induced IL-12p40 secretion at 70 nmol/g, ip pretreated for 1 hr followed by LPS challenge and measured after 2 hrs by ELISA; type: functional, organism-based
# [9] = biological target: T1, Toll-like receptor 4 (Mus musculus); assay: Antagonist activity at TLR4 in mouse RAW264.7 cells assessed as reduction in LPS-induced JNK phosphorylation at 80 uM after 15 to 30 mins by Western blot analysis; type: cell-based
# [10] = biological target: T1, Toll-like receptor 4 (Mus musculus); assay: Antagonist activity at TLR4 in mouse RAW264.7 cells assessed as reduction in LPS-induced cytosolic NO level at 80 uM by DAF-FM staining based FACS analysis; type: cell-based
# [11] = Effect on SEAP activity in HEK-Blue cells harboring human TLR4 at 20 to 80 uM after 1 hr by SEAP assay; type: ADME, cell-based
# [12] = biological target: Toll-like receptor 1/2 (Homo sapiens) (UniProt O60603+Q15399); assay: Antagonist activity at TLR2/1 in human PBMC cells assessed as reduction in PAM3CSK4-induced TNFalpha secretion at 20 to 80 uM after 24 hrs by ELISA; type: cell-based
Activity [3],Activity (Toll-like receptor 4 [4]),Activity [6],Activity (Toll-like receptor 4 [8]),Activity [9],Activity [10],Activity [12],Molecule,Activity (Rattus norvegicus [1]),Activity (Rattus norvegicus [2]),Activity (Rattus norvegicus [5]),Activity (Rattus norvegicus [7]),Activity (Mus musculus),Activity [11]
Active,Active,Active,Active,–,–,–,CC[C@H](C)[C@@H]1NC(=O)[C@H](Cc2c[nH]c3ccccc23)NC(=O)[C@H](Cc2c[nH]c3ccccc23)NC(=O)[C@@H](NC(=O)[C@H](CO)NC(=O)[C@H](Cc2ccccc2)NC(=O)[C@@H](NC(=O)CNC(=O)[C@@H](N)CC(C)C)C(C)C)CC(=O)NCCCC[C@@H](C(=O)N[C@@H](CC(C)C)C(=O)N[C@H](C(=O)O)C(C)C)NC1=O (H-LGVFSDWWIKLV-OH; lactam 6-10),Active,Active,Active,Active,–,–
–,–,–,–,Active,Active,inactive,H-LGVFSSWWIKLV-OH,–,–,–,–,Active,Non-Toxic
